The record followed here is ChEMBL document CHEMBL1142905, “1,4-Bis(alkylamino)benzo[g]phthalazines able to form dinuclear complexes of Cu(II) which as free ligands behave as SOD inhibitors and show efficient in vitro activity against Trypanosoma cruzi” (Bioorg Med Chem, 2007).

In brackets after ≈: the same amount, converted by molar mass.

Usually inhibition stands for the percentage by which the read-out fell short of the control. One may read the IC50 as the concentration at which inhibition is half-maximal.

Data set [1] concerns Trypanosoma cruzi. Briefly: Inhibition of Fe-SOD in Trypanosoma cruzi Maracay at 25 ug/mL.
The species named for data set [2] is Homo sapiens. The experiment in a line: Inhibition of Cu-Zn SOD in human erythrocytes at 25 ug/mL. Type of data set: cell-based.
Data set [3] deals with Trypanosoma cruzi. The experiment in a line: Inhibition of Trypanosoma cruzi Maracay epimastigotes after 72 hrs. Format: functional, organism-based.
In data set [4] the test system is Trypanosoma cruzi. Briefly: Inhibition of Trypanosoma cruzi Maracay epimastigotes after 24 hrs. Type of data set: functional, organism-based.
Data set [5] relates to Trypanosoma cruzi. The experiment in a line: Inhibition of Fe-SOD in Trypanosoma cruzi Maracay at 1 ug/mL.
Data set [6] has as its system Trypanosoma cruzi. The experiment in a line: Inhibition of Trypanosoma cruzi Maracay epimastigotes after 48 hrs. Format: functional, organism-based.
The test system of data set [7] is Trypanosoma cruzi. Briefly: Inhibition of Fe-SOD in Trypanosoma cruzi Maracay at 10 ug/mL.
Data set [8] is filed under the species Homo sapiens. Briefly: Inhibition of Cu-Zn SOD in human erythrocytes at 1 ug/mL. Type of data set: cell-based.
The nature of data set [9]: Toxicity against Vero cells after 72 hrs. Type of data set: cell-based. The conditions noted are these: Chlorocebus sabaeus (African green monkey).
The species entered for data set [10] is Homo sapiens. The experiment in a line: Inhibition of Cu-Zn SOD in human erythrocytes at 10 ug/mL. Format: cell-based.
Data set [11] deals with Trypanosoma cruzi. Briefly: Inhibition of rate of infection with Trypanosoma cruzi Maracay metacyclic form in Vero cells at 5 ug/mL after 8 days. Type of data set: functional. The following applies: 192 h.
The test system of data set [12] is Trypanosoma cruzi. Briefly: Reduction of Trypanosoma cruzi Maracay amastigotes infection in Vero cells at 5 ug/Ml after 8 days relative to control. Further details: scale not given: the % may be the effect or the level left. Format: functional.
Data set [13] has as its system Trypanosoma cruzi. Briefly: Reduction of Trypanosoma cruzi Maracay trypomastigote infection in Vero cells. Format: functional. More on the design: scale not given: the % may be the effect or the level left.
The subject of data set [14] is Trypanosoma cruzi. Briefly: Inhibition of rate of infection with Trypanosoma cruzi Maracay metacyclic form in Vero cells at 5 ug/mL after 2 days. Type of data set: functional. More on the design: scale not given: the % may be the effect or the level left.

In the case of `OCCOCCNc1nnc(NCCOCCO)c2cc3ccccc3cc12`, the inhibition in the data set with Trypanosoma cruzi [1] was determined as 53%; in the data set listed under Homo sapiens [2], 0%; in the data set with Trypanosoma cruzi [5], 27%; in the data set on Trypanosoma cruzi [7], 34%; in the data set filed under Homo sapiens [8] it was 0%; in the data set listed under Homo sapiens [10], 0%. The IC50 in the data set with Trypanosoma cruzi [3] amounted to 30.6 µg/mL (≈ 79.2 µM); in the data set with Trypanosoma cruzi [4], 75.4 µg/mL (≈ 195 µM); in the data set on Trypanosoma cruzi [6] it was 62.6 µg/mL (≈ 162 µM). In data set [9], this compound came in with an IC50 at 72 h of 93.5 µg/mL (≈ 242 µM).

On to `NCCOCCNc1nnc(NCCOCCN)c2cc3ccccc3cc12`, for which the inhibition in the data set with Trypanosoma cruzi [1] was determined as 100%; in the data set listed under Homo sapiens [2] it was 17%; with Trypanosoma cruzi [5] it was 48%; with Trypanosoma cruzi [7], 73%; in the data set listed under Homo sapiens [8], 0%; in the data set filed under Homo sapiens [10], 11%. Also, 5 µg/mL produced 57% inhibition in the data set with Trypanosoma cruzi [11]. The IC50 with Trypanosoma cruzi [3] stood at 12 µg/mL (≈ 31.3 µM); in the data set on Trypanosoma cruzi [6], 15.6 µg/mL (≈ 40.6 µM). The Activity with Trypanosoma cruzi [12] worked out at 43%; in the data set on Trypanosoma cruzi [13] it was 65%. Also, the IC50 at 72 h in [9] came out at 67.3 µg/mL (≈ 175 µM).

`O=C(Cn1ccnc1[N+](=O)[O-])NCc1ccccc1` [BENZNIDAZOLE] yielded a half-inhibitory concentration (IC50) at 72 h in [9] of 3.53 µg/mL (≈ 13.6 µM).

On to `c1ccc(COCCCNc2nnc(NCCCOCc3ccccn3)c3cc4ccccc4cc23)nc1`, for which the inhibition in the data set on Trypanosoma cruzi [1] turned out to be 75%; in the data set listed under Homo sapiens [2] it was 11%; with Trypanosoma cruzi [5], 64%; with Trypanosoma cruzi [7], 68%; in the data set listed under Homo sapiens [8], 0%; in the data set filed under Homo sapiens [10], 7%. In the data set on Trypanosoma cruzi [11], at 5 µg/mL the inhibition was 68%. Also, the values for the Activity in the data set on Trypanosoma cruzi [14], with Trypanosoma cruzi [12] and in the data set on Trypanosoma cruzi [13] were 35%, 44% and 74%, respectively. The IC50 in the data set with Trypanosoma cruzi [3] came to 3.25 µg/mL (≈ 6.39 µM); with Trypanosoma cruzi [4], 56.8 µg/mL (≈ 112 µM); in the data set with Trypanosoma cruzi [6], 12.8 µg/mL (≈ 25.3 µM). In [9], this compound showed an IC50 at 72 h of 6.25 µg/mL (≈ 12.3 µM).
